According to PubChem BioAssay AID1259407 (Chemical Carcinogenesis Research Information System (CCRIS), 2018):
Active and inactive are the calls of the source. The rule behind the calls is not given here.

Tested on: CCRIS mutagenicity, Ames/micronucleus/aberration tests
Assay: CCRIS mutagenicity studies
[1] = Test System: AMES SALMONELLA TYPHIMURIUM, Strain/Indicator: TA98, Metabolic Activation: NONE, Method: PREINCUBATION
[2] = Test System: AMES SALMONELLA TYPHIMURIUM, Strain/Indicator: TA100, Metabolic Activation: NONE, Method: PREINCUBATION

Measured: mutagenic call

COc1ccc2cc([C@H](C)C(=O)O)ccc2c1
inactive: Test System: AMES SALMONELLA TYPHIMURIUM, Strain/Indicator: TA97A, Metabolic Activation: NONE, Method: STANDARD PLATE inactive; negative | Test System: AMES SALMONELLA TYPHIMURIUM, Strain/Indicator: TA97A, Metabolic Activation: RAT, LIVER, S-9, PHENOBARBITAL, Method: STANDARD PLATE inactive; negative | Test System: AMES SALMONELLA TYPHIMURIUM, Strain/Indicator: TA98, Metabolic Activation: GUINEA PIG, LIVER, S-9, PCB, Method: PREINCUBATION inactive; negative | Test System: AMES SALMONELLA TYPHIMURIUM, Strain/Indicator: TA98, Metabolic Activation: HAMSTER, LIVER, S-9, PCB, Method: PREINCUBATION inactive; negative | Test System: AMES SALMONELLA TYPHIMURIUM, Strain/Indicator: TA98, Metabolic Activation: MOUSE, LIVER, S-9, PCB, Method: PREINCUBATION inactive; negative | [1] inactive; negative | Test System: AMES SALMONELLA TYPHIMURIUM, Strain/Indicator: TA98, Metabolic Activation: RAT, LIVER, S-9, PCB, Method: PREINCUBATION inactive; negative | Test System: AMES SALMONELLA TYPHIMURIUM, Strain/Indicator: TA98, Metabolic Activation: RAT, LIVER, S-9, PCB, Method: STANDARD PLATE inactive; negative | Test System: AMES SALMONELLA TYPHIMURIUM, Strain/Indicator: TA100, Metabolic Activation: GUINEA PIG, LIVER, S-9, PCB, Method: PREINCUBATION inactive; negative | Test System: AMES SALMONELLA TYPHIMURIUM, Strain/Indicator: TA100, Metabolic Activation: HAMSTER, LIVER, S-9, PCB, Method: PREINCUBATION inactive; negative | Test System: AMES SALMONELLA TYPHIMURIUM, Strain/Indicator: TA100, Metabolic Activation: MOUSE, LIVER, S-9, PCB, Method: PREINCUBATION inactive; negative | [2] inactive; negative | Test System: AMES SALMONELLA TYPHIMURIUM, Strain/Indicator: TA100, Metabolic Activation: NONE, Method: STANDARD PLATE inactive; negative | Test System: AMES SALMONELLA TYPHIMURIUM, Strain/Indicator: TA100, Metabolic Activation: RAT, LIVER, S-9, PCB, Method: PREINCUBATION inactive; negative | Test System: AMES SALMONELLA TYPHIMURIUM, Strain/Indicator: TA100, Metabolic Activation: RAT, LIVER, S-9, PCB, Method: STANDARD PLATE inactive; negative | Test System: AMES SALMONELLA TYPHIMURIUM, Strain/Indicator: TA100, Metabolic Activation: RAT, LIVER, S-9, PHENOBARBITAL, Method: STANDARD PLATE inactive; negative | Test System: AMES SALMONELLA TYPHIMURIUM, Strain/Indicator: TA102, Metabolic Activation: NONE, Method: STANDARD PLATE inactive; negative | Test System: AMES SALMONELLA TYPHIMURIUM, Strain/Indicator: TA102, Metabolic Activation: RAT, LIVER, S-9, PHENOBARBITAL, Method: STANDARD PLATE inactive; negative | Test System: AMES SALMONELLA TYPHIMURIUM, Strain/Indicator: TA1537, Metabolic Activation: RAT, LIVER, S-9, PCB, Method: STANDARD PLATE inactive; negative | Test System: AMES SALMONELLA TYPHIMURIUM, Strain/Indicator: TA1538, Metabolic Activation: RAT, LIVER, S-9, PCB, Method: STANDARD PLATE inactive; negative | Test System: E. COLI, Strain/Indicator: WP2 UVRA, Metabolic Activation: RAT, LIVER, S-9, PCB, Method: STANDARD PLATE inactive; negative

NCCCCCCCCCCCC(=O)O
inactive: [1] inactive; negative | Test System: AMES SALMONELLA TYPHIMURIUM, Strain/Indicator: TA98, Metabolic Activation: RAT LIVER S-9, PHENOBARBITAL AND BETA-NAPHTHOFLAVONE, Method: PREINCUBATION inactive; negative | [2] inactive; negative | Test System: AMES SALMONELLA TYPHIMURIUM, Strain/Indicator: TA100, Metabolic Activation: RAT LIVER S-9, PHENOBARBITAL AND BETA-NAPHTHOFLAVONE, Method: PREINCUBATION inactive; negative | Test System: AMES SALMONELLA TYPHIMURIUM, Strain/Indicator: TA1535, Metabolic Activation: NONE, Method: PREINCUBATION inactive; negative | Test System: AMES SALMONELLA TYPHIMURIUM, Strain/Indicator: TA1535, Metabolic Activation: RAT LIVER S-9, PHENOBARBITAL AND BETA-NAPHTHOFLAVONE, Method: PREINCUBATION inactive; negative | Test System: AMES SALMONELLA TYPHIMURIUM, Strain/Indicator: TA1537, Metabolic Activation: NONE, Method: PREINCUBATION inactive; negative | Test System: AMES SALMONELLA TYPHIMURIUM, Strain/Indicator: TA1537, Metabolic Activation: RAT LIVER S-9, PHENOBARBITAL AND BETA-NAPHTHOFLAVONE, Method: PREINCUBATION inactive; negative | Test System: E.COLI, Strain/Indicator: WP2UVRA/PKM101, Metabolic Activation: NONE, Method: PREINCUBATION inactive; negative | Test System: E.COLI, Strain/Indicator: WP2UVRA/PKM101, Metabolic Activation: RAT LIVER S-9, PHENOBARBITAL AND BETA-NAPHTHOFLAVONE, Method: PREINCUBATION inactive; negative
